Laboratory results: patent US9663478B2, “Benzotriazine oxides as drugs targeting Mycobacterium tuberculosis” (priority 2011, dated 2017)
≈ marks a conversion by molar mass, not a printed value.

Legend:
Experiment in all cases: microbe, parasite or virus in culture
Assay type in all cases: cell-based, Mycobacterium tuberculosis
[1] = system: Mtb strain resistant to Ethionamide ATCC 35830; conditions: Mycobacterium tuberculosis, ATCC35830, read-out: Activity against Mtb strain resistant to Ethionamide ATCC 35830
[2] = system: Mtb strain resistant to Kanamycin ATCC 35827; conditions: Mycobacterium tuberculosis, ATCC35827, read-out: Activity against Mtb strain resistant to Kanamycin ATCC 35827
[3] = system: Mtb strain resistant to Streptomycin ATCC 35820; conditions: Mycobacterium tuberculosis, ATCC35820, read-out: Activity against Mtb strain resistant to Streptomycin ATCC 35820
[4] = system: Mtb strain resistant to Ethambutol ATCC 35837; conditions: Mycobacterium tuberculosis, ATCC35837, read-out: Activity against Mtb strain resistant to Ethambutol ATCC 35837
[5] = system: Mtb strain resistant to Isoniazid ATCC 35822; conditions: Mycobacterium tuberculosis, ATCC35822, read-out: Activity against Mtb strain resistant to Isoniazid ATCC 35822
[6] = system: Mtb strain resistant to P-aminosalicyclic acid ATCC 35821; conditions: Mycobacterium tuberculosis, ATCC35821, read-out: Activity against Mtb strain resistant to P-aminosalicyclic acid ATCC 35821

Row | Structure (SMILES) | MIC [1] [µg/mL] | MIC [2] [µg/mL] | MIC [3] [µg/mL] | MIC [4] [µg/mL] | MIC [5] [µg/mL] | MIC [6] [µg/mL]
1 | CCNc1n[n+]([O-])c2cc3c(cc2[n+]1[O-])CCC3 [SRI-012286] | 1.25 (≈ 5.08 µM) | 1.25 (≈ 5.08 µM) | 0.63 (≈ 2.56 µM) | 1.25 (≈ 5.08 µM) | 2.5 (≈ 10.2 µM) | 1.25 (≈ 5.08 µM)
2 | [O-][n+]1nc(NC2CCC2)[n+]([O-])c2cc3c(cc21)CCC3 [SRI-012403] | – | 1.25 (≈ 4.59 µM) | – | – | 1.25 (≈ 4.59 µM) | –
3 | [O-][n+]1nc(N2CCCC2)[n+]([O-])c2ccccc21 [SRI-012495] | – | 0.31 (≈ 1.33 µM) | – | – | 0.31 (≈ 1.33 µM) | –
4 | CCNc1n[n+]([O-])c2cc3c(cc2[n+]1[O-])CCCC3 [SRI-012496] | 1.25 (≈ 4.8 µM) | 1.25 (≈ 4.8 µM) | 1.25 (≈ 4.8 µM) | 1.25 (≈ 4.8 µM) | 1.25 (≈ 4.8 µM) | 1.25 (≈ 4.8 µM)
5 | [O-][n+]1nc(NC2CCC2)[n+]([O-])c2cc3c(cc21)CCCC3 [SRI-012497] | 1.25 (≈ 4.37 µM) | 2.5 (≈ 8.73 µM) | 1.25 (≈ 4.37 µM) | 2.5 (≈ 8.73 µM) | 2.5 (≈ 8.73 µM) | 1.25 (≈ 4.37 µM)
6 | [O-][n+]1nc(NC2CC3CCC2C3)[n+]([O-])c2cc3c(cc21)CCCC3 (centres unmarked) [SRI-012498] | 1.25 (≈ 3.83 µM) | 1.25 (≈ 3.83 µM) | 1.25 (≈ 3.83 µM) | 1.25 (≈ 3.83 µM) | 2.5 (≈ 7.66 µM) | 1.25 (≈ 3.83 µM)
7 | [O-][n+]1nc(N2CCCC2)[n+]([O-])c2cc3c(cc21)CCC3 [SRI-012530] | 0.62 (≈ 2.28 µM) | 0.63 (≈ 2.31 µM) | 0.16 (≈ 0.588 µM) | 0.62 (≈ 2.28 µM) | 0.31 (≈ 1.14 µM) | 0.31 (≈ 1.14 µM)
8 | [O-][n+]1nc(N2CCCCC2)[n+]([O-])c2cc3c(cc21)CCC3 [SRI-012562] | – | 0.31 (≈ 1.08 µM) | – | – | 0.15 (≈ 0.524 µM) | –
9 | CN(C)c1n[n+]([O-])c2cc3c(cc2[n+]1[O-])CCC3 [SRI-012563] | – | 0.31 (≈ 1.26 µM) | – | – | < 0.07 | –
10 | CN(Cc1ccccc1)c1n[n+]([O-])c2cc3c(cc2[n+]1[O-])CCC3 [SRI-012564] | – | 0.15 (≈ 0.465 µM) | – | – | < 0.07 | –
11 | CN(CCc1ccccc1)c1n[n+]([O-])c2cc3c(cc2[n+]1[O-])CCC3 [SRI-012565] | – | 0.15 (≈ 0.446 µM) | – | – | 0.07 (≈ 0.208 µM) | –
12 | O=S1(=O)CCN(c2n[n+]([O-])c3cc4c(cc3[n+]2[O-])CCC4)CC1 [SRI-012566] | 0.62 (≈ 1.84 µM) | 2.5 (≈ 7.43 µM) | 2.5 (≈ 7.43 µM) | 2.5 (≈ 7.43 µM) | 2.5 (≈ 7.43 µM) | 2.5 (≈ 7.43 µM)
13 | CC1CCCCN1c1n[n+]([O-])c2cc3c(cc2[n+]1[O-])CCC3 (centres unmarked) [SRI-012567] | – | 0.62 (≈ 2.06 µM) | – | – | 0.31 (≈ 1.03 µM) | –
14 | CS(=O)(=O)N1CCN(c2n[n+]([O-])c3cc4c(cc3[n+]2[O-])CCC4)CC1 [SRI-012568] | 0.62 (≈ 1.7 µM) | 2.5 (≈ 6.84 µM) | 2.5 (≈ 6.84 µM) | 2.5 (≈ 6.84 µM) | 2.5 (≈ 6.84 µM) | 2.5 (≈ 6.84 µM)
